From patent publication US7772216B2, “Protein kinase and phosphatase inhibitors and methods for designing them” (The Research Foundation of State University of New York, priority 2001, dated 2010)
Where two headings read alike, the source gives them in different places. Starred links: 1 amine or outer side, 2 acyl side, 3 side chain; linkers in the order of their positions; H or OH if unused. Non-standard residues stand in square brackets, D forms with d. Residues, ends and D or L forms follow the SMILES beside them. X4 = O=C([C@H](CCCB(O)O)N[*:1])[*:2]

How the values were obtained:
pp60^c-src = pp60^c-src (Homo sapiens, UniProt P12931); experiment: Cellular Mimetic Src assay (RR-SRC phosphorylation); conditions: for inhibition at 500 µM: read-out: % Inhibition of 2 mM RR-src at Inhibitor Concentration (500 μM); for inhibition at 45 µM: inhibitor at 45 μM
pp60^c-src, sequence (P12931 whole entry): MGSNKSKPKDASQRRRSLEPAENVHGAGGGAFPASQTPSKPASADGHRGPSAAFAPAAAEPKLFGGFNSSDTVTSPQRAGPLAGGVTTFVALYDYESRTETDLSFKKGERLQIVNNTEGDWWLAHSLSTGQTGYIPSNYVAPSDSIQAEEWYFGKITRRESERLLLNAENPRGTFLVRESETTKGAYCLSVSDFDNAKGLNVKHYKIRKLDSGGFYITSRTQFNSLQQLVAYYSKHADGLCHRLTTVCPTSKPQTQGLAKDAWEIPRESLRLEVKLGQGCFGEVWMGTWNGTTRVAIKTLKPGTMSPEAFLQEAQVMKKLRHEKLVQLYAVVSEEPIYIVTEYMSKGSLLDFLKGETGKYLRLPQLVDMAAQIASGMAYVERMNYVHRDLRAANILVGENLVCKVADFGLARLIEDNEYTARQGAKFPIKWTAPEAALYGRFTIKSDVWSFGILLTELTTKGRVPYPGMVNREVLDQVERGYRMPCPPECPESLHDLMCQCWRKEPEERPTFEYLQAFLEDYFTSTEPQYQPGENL

PKA [1] = target: T1, PKA (Homo sapiens, UniProt P17612); experiment: Literature Mimetic PKA assay; format: biochemical; conditions: 1000 μM inhibitor, L
Excerpt: (§1) The boronic acid inhibitors 21-24 have two Arg's in their sequence also and therefore will bind to the phosphocellulose paper in addition to Kemptamide (although not as consistently or completely due to one less positive charge). Consequently, when analyzed as inhibitors, the amount of phosphorylated Kemptamide produced was not only counted, but also the amount of phosphorylated inhibitor simultaneously produced (e.g. see 26 below). The net result is that distorted IC50 curves are obtained which show net “stimulation” at higher inhibitor concentrations in some cases. […] The underlying substrate behavior of these “inhibitors” makes an accurate measurement of their inhibition potency impossible with the current assay. However, it does appear from the data that homologating the boronic acid functionality out with only CH2 groups (homologations with boronic acid non-peptide Src inhibitors may also be carried out) decreases the binding affinity and ability to function as a substrate.

PKA [2] = target: T1, PKA; experiment: Cellular Mimetic PKA assay; format: biochemical
Excerpt: as §1
Phosphorylated Kemptamide is SEQ. ID. No. 6. Phosphorylated 22 is SEQ. ID. No. 4. […] The graphs show their respective rates and levels of phosphorylation with the typical loss of initial velocity kinetics with time (due to substrate depletion and end product inhibition), analogous to a standard L-Ser substrate such as Kemptamide. The comparison of 21 to 22 shown was done in the same assay run, at identical boronic acid substrate concentrations, and with identical Cellular Mimetic assay solutions so that the cpm's could be directly compared. […] That the boronic acid moiety would be phosphorylated by PKA was surprising, but it is even more surprising that the phosphonic-boronic acid mixed anhydride produced (e.g. 26) was stable enough to survive the pH 7.2/37° C. assay incubation and then be isolated by binding to phosphocellulose paper after acid quenching of the reaction with 10% TCA and washing the phosphocellulose paper with 25 mM phosphoric acid (3×). An STN substructure search was run on mixed anhydrides of phosphoric and boronic acids and found only three references to experiments and theoretical calculations for the analogous putative (but not proven) anhydride formed from boric acid and phosphoric acid as a solid surface impregnated catalyst for the partial oxidation of ethane to acetaldehyde at 823° K. (Zhanpeisov & Otsuka, 1992, Otsuka et al., 1992, Murakami et al., 1990). However, this highly unusual anhydride has never before been synthesized free of a solid surface, isolated, or characterized. Thus, this is a novel enzymatic reaction and chemical entity with interesting possibilities for protein kinase inhibitor designs.

EGFRTK = EGFRTK (Homo sapiens, UniProt P00533); experiment: EGFRTK inhibition; format: biochemical; conditions: % inhibition at 10 micromolar compound
EGFRTK, sequence (P00533 25-1210): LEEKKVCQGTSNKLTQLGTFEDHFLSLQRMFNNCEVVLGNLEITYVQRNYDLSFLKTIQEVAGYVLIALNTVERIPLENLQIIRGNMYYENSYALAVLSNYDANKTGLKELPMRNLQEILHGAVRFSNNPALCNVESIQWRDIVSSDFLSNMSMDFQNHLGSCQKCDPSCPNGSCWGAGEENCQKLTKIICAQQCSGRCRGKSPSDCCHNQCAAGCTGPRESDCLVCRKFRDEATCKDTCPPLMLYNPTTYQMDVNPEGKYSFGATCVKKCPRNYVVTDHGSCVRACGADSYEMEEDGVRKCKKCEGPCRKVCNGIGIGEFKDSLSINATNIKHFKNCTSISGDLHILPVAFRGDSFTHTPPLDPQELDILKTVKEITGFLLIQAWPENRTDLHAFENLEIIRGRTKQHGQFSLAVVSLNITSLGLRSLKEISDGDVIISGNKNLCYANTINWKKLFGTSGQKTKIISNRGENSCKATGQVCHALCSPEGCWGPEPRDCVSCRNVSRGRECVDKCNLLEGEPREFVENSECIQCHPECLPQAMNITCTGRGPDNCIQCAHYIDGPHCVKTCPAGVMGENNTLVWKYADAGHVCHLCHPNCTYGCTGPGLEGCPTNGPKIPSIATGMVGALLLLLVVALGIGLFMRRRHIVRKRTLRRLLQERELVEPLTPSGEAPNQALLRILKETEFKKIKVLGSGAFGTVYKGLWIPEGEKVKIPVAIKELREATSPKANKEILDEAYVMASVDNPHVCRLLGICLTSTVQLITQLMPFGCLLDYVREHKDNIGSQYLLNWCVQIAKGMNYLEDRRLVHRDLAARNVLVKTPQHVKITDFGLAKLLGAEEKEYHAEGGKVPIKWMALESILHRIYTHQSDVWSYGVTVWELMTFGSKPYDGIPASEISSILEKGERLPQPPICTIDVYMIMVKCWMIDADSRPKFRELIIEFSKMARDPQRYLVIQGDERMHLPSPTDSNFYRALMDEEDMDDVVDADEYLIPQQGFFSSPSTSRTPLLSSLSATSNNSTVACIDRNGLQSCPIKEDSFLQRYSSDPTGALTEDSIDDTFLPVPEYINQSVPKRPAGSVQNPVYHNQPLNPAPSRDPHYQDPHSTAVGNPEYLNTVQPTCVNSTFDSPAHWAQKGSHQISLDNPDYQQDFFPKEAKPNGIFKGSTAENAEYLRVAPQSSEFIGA
Excerpt: (§2) Blanks for a particular enzyme indicate that inhibition was not found.

PTP-1B = target: T2, PTP-1B (Homo sapiens, UniProt P18031); experiment: PTP-1B inhibition; format: biochemical; conditions: % inhibition at 10 micromolar compound
T2 sequence (P18031 1-435): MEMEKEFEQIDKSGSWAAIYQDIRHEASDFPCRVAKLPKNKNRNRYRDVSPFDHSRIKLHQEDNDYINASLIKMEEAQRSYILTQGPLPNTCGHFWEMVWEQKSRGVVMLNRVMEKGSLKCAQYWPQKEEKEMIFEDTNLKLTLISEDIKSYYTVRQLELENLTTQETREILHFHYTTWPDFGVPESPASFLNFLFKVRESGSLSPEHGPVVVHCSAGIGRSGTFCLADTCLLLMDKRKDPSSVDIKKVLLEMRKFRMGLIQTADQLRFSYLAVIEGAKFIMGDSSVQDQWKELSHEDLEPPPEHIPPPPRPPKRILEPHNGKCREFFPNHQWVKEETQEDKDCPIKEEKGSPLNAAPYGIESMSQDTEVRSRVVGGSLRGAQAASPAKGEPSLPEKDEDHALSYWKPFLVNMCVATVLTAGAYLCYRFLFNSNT
Excerpt: as §2

[3] = read-out: % Inhibition of 2 mM RR-src at Inhibitor Concentration (100 μM)

COC(=O)c1cc2ccc(B(O)O)cc2cn1
inhibition at 500 µM (pp60^c-src): 13%

OB(O)c1ccc(-c2ccccc2)cc1
inhibition at 100 µM (pp60^c-src; [3]): 13%

OB(O)c1cccc(-c2ccccc2)c1
inhibition at 100 µM (pp60^c-src; [3]): 14%

COC(=O)c1cc2ccc(O)cc2cc1O
inhibition at 100 µM (pp60^c-src; [3]): 47%

O=C(Nc1cccc(O)c1)c1ccc2cc(O)ccc2c1
inhibition at 100 µM (pp60^c-src; [3]): 45%

COC(=O)c1cc2cc(O)ccc2[nH]1
inhibition at 500 µM (pp60^c-src): 40%

CC[C@H](C)[C@H](NC(=O)[C@H](CCCB(O)O)NC(=O)CNC(=O)[C@H](CCCNC(=N)N)NC(=O)[C@H](CCCNC(=N)N)NC(C)=O)C(N)=O (Ac-RRG[X4]I-NH2)
inhibition at 1000 µM (PKA [1]; 0 h preincubation): 33% | inhibition at 1000 µM (PKA [1]; 4 h preincubation): 44% | % sti (stimulation) (PKA [2]; 2000 μM inhibitor, C, 0 h preincubation): 2000 μM 6% sti | IC50 (PKA [2]; IC50 μM (cond. C, 4 h preincubation), Cellular Mimetic, 4 h preincubation): 1730 µM

O=C(NCc1cccc(O)c1)c1cc2cc(O)ccc2[nH]1 [Cmpd 2k]
inhibition at 45 µM (pp60^c-src; [ATP] 200 μM): 46% | inhibition at 45 µM (pp60^c-src; [ATP] 1,000 μM): 41% | inhibition at 100 µM (pp60^c-src; read-out: % Inhibition at 100 μM (std. dev.), Table X, hydroxyindole derivatives): 74%

COc1cccc([C@H](C)NC(=O)c2cc3cc(F)ccc3[nH]2)c1 [Compound 1aa]
EGFRTK @ 10 μm (EGFRTK): 12%

O=C(NCc1cc(C(F)(F)F)ccc1F)c1cc2cc(F)ccc2[nH]1 [Compound 1aaa]
PTP-1B @ 10 μm (PTP-1B): 12%

O=C(NCc1ccccc1)c1cc2cc(F)ccc2[nH]1 [Compound 1bb]
EGFRTK @ 10 μm (EGFRTK): 19%

O=C(N[C@H](c1ccccc1)[C@H](O)c1ccccc1)c1cc2cc(F)ccc2[nH]1 [Compound 1cc]
EGFRTK @ 10 μm (EGFRTK): 19%

O=C(N[C@@H](c1ccccc1)[C@@H](O)c1ccccc1)c1cc2cc(F)ccc2[nH]1 [Compound 1dd]
EGFRTK @ 10 μm (EGFRTK): 41%

O=C(NCc1cc(O)cc(OCc2ccccc2)c1)c1cc2cc(F)ccc2[nH]1 [Compound 1dddd]
PTP-1B @ 10 μm (PTP-1B): 16%

COc1ccc(CNC(=O)c2cc3cc(F)ccc3[nH]2)cc1 [Compound 1ee]
EGFRTK @ 10 μm (EGFRTK): 16%

O=C(NCc1cccc(I)c1)c1cc2cc(F)ccc2[nH]1 [Compound 1ff]
EGFRTK @ 10 μm (EGFRTK): 24%

Cc1ccccc1CNC(=O)c1cc2cc(F)ccc2[nH]1 [Compound 1ffff]
EGFRTK @ 10 μm (EGFRTK): 12%

O=C(NCc1ccc(O)c(O)c1)c1cc2cc(F)ccc2[nH]1 [Compound 1gggg]
EGFRTK @ 10 μm (EGFRTK): 25%

COc1cc(CNC(=O)c2cc3cc(F)ccc3[nH]2)cc(OC)c1 [Compound 1hhhh]
PTP-1B @ 10 μm (PTP-1B): 17%

O=C(NCc1cc(OCc2ccccc2)cc(OCc2ccccc2)c1)c1cc2cc(F)ccc2[nH]1 [Compound 1iiii]
EGFRTK @ 10 μm (EGFRTK): 12%

O=C(NCc1ccc(OCc2ccccc2)c(O)c1)c1cc2cc(F)ccc2[nH]1 [Compound 1jjjj]
PTP-1B @ 10 μm (PTP-1B): 15%
